Source: patent US20170232083A1, “METHODS OF DIAGNOSIS AND TREATMENT OF CELIAC DISEASE IN CHILDREN” (priority 2014, published 2017)

Test system: PBMC (polyclonal gluten-specific T cells) of paediatric and adult CD patients
Assay: IFN-γ ELISpot of PBMC after 3 day oral wheat challenge (SFU, % of maximal peptide response, dominance scores, EC50; Examples 5-6)
Assay type: cell-based, human
Conditions: for Cross-reactive T cell response: following wheat challenge; for IFN-γ ELISpot response: after oral wheat challenge
[1] = patient A, 11-17 yrs, cut-off 10 SFU
[2] = patient E, H, 11-17 yrs, cut-off 10 SFU
[3] = patient F, 11-17 yrs, cut-off 10 SFU
[4] = patient G, 11-17 yrs, cut-off 10 SFU
[5] = patient H (HLA-DQ2.5 homozygote), 3-5yrs, cut-off 10 SFU
[6] = patient H, 11-17 yrs, cut-off 10 SFU
[7] = patient ID not given, 11-17 yrs, cut-off 10 SFU
[8] = patient N, 3-5yrs, cut-off 10 SFU
[9] = patient P, 11-17 yrs, cut-off 21.6 SFU
[10] = patient Q, 11-17 yrs, cut-off 10 SFU
[11] = patient U, H, 11-17 yrs, cut-off 10 SFU
[12] = patient V, 6-10 yrs, cut-off 10 SFU
[13] = patient Y, 6-10 yrs, cut-off 10 SFU
[14] = patient eleven, 6-10 yrs, cut-off 10 SFU
[15] = patient four, 3-5yrs, cut-off 10 SFU
[16] = patient seven, 6-10 yrs, cut-off 10.5 SFU
[17] = patient ten, 3-5yrs, cut-off 10 SFU
[18] = patient three, 6-10 yrs, cut-off 10.5 SFU
[19] = patient twelve, 11-17 yrs, cut-off 10 SFU
[20] = patient two, 3-5yrs, cut-off 10 SFU

QEFPQPEQPFPQQ
Cross-reactive T cell response (subject A, 11-17yrs): 4 SFU
Significant response as a percentage of maximal peptide SFU (subject D, 11-17yrs): ′′′ (41-70% = ′′′)
Cross-reactive T cell response (subject D, 11-17yrs): 15 SFU
Significant response as a percentage of maximal peptide SFU (subject E, 11-17yrs): ′ (11-20% = ′)
Cross-reactive T cell response (subject E, 11-17yrs): 30 SFU
Significant response as a percentage of maximal peptide SFU (subject F, 11-17yrs): ′′ (21-40% = ′′)
Cross-reactive T cell response (subject F, 11-17yrs): 38 SFU
Cross-reactive T cell response (subject G, 11-17yrs): 4 SFU
Cross-reactive T cell response (subject H): 1 SFU
Cross-reactive T cell response (subject I (3-5yrs/6-10yrs part)): 8 SFU
Significant response as a percentage of maximal peptide SFU (subject J): ′′′ (41-70% = ′′′)
Cross-reactive T cell response (subject J (3-5yrs/6-10yrs part)): 93 SFU
Significant response as a percentage of maximal peptide SFU (subject K): ′′ (21-40% = ′′)
Cross-reactive T cell response (subject K (3-5yrs/6-10yrs part)): 21 SFU
Cross-reactive T cell response (subject P, 11-17yrs): 7 SFU
Significant response as a percentage of maximal peptide SFU (subject Q, 11-17yrs): ′′′ (41-70% = ′′′)
Cross-reactive T cell response (subject Q, 11-17yrs): 44 SFU
Significant response as a percentage of maximal peptide SFU (subject T, 11-17yrs): + (>70% = +)
Cross-reactive T cell response (subject T, 11-17yrs): 67 SFU
Significant response as a percentage of maximal peptide SFU (subject U, 11-17yrs): ′′ (21-40% = ′′)
Cross-reactive T cell response (subject U, 11-17yrs): 23 SFU
Significant response as a percentage of maximal peptide SFU (subject V): ′′ (21-40% = ′′)
Cross-reactive T cell response (subject V (3-5yrs/6-10yrs part)): 11 SFU
Cross-reactive T cell response (subject W (3-5yrs/6-10yrs part)): 3 SFU
Cross-reactive T cell response (subject Y (3-5yrs/6-10yrs part)): 2 SFU
Significant response as a percentage of maximal peptide SFU (subject five): + (>70% = +)
Cross-reactive T cell response (subject five (3-5yrs/6-10yrs part)): 36 SFU
Cross-reactive T cell response (subject nine, 11-17yrs): 1 SFU
Cross-reactive T cell response (subject seven (3-5yrs/6-10yrs part)): 2 SFU
Cross-reactive T cell response (subject six (3-5yrs/6-10yrs part)): 6 SFU
Cross-reactive T cell response (subject ten (3-5yrs/6-10yrs part)): 8 SFU
Significant response as a percentage of maximal peptide SFU (subject two): ′′′ (41-70% = ′′′)
Cross-reactive T cell response (subject two (3-5yrs/6-10yrs part)): 30 SFU

YEVIRSLVLRTLPN
IFN-γ ELISpot response [1]: 20 SFU
Significant response as percentage of maximal peptide SFU (patient A, max peptide 20 SFU): + (>70% = +)
IFN-γ ELISpot response [2]: 1 SFU
IFN-γ ELISpot response [3]: 2 SFU
IFN-γ ELISpot response [4]: 1 SFU
IFN-γ ELISpot response [5]: 0 SFU
IFN-γ ELISpot response [6]: 3 SFU
IFN-γ ELISpot response [7]: 1 SFU
IFN-γ ELISpot response [8]: 2 SFU
IFN-γ ELISpot response [9]: 49 SFU
Significant response as percentage of maximal peptide SFU (patient P, max peptide 64 SFU): + (>70% = +)
IFN-γ ELISpot response [10]: 2 SFU
IFN-γ ELISpot response [11]: 3 SFU
IFN-γ ELISpot response [12]: 3 SFU
Significant response as percentage of maximal peptide SFU (patient W, max peptide 30 SFU): + (>70% = +)
IFN-γ ELISpot response [13]: 1 SFU
IFN-γ ELISpot response [14]: 1 SFU
IFN-γ ELISpot response [15]: 1 SFU
IFN-γ ELISpot response [16]: 10 SFU
IFN-γ ELISpot response [17]: 3 SFU
IFN-γ ELISpot response [18]: 4 SFU
IFN-γ ELISpot response [19]: 0 SFU
IFN-γ ELISpot response [20]: 1 SFU

FPQPEQEFPQPQQ
IFN-γ ELISpot response [1]: 6 SFU
IFN-γ ELISpot response [2]: 49 SFU
Significant response as percentage of maximal peptide SFU (patient E, max peptide 224 SFU): ′′ (21-40% = ′′)
IFN-γ ELISpot response [3]: 21 SFU
Significant response as percentage of maximal peptide SFU (patient F, max peptide 178 SFU): ′ (11-20% = ′)
IFN-γ ELISpot response [4]: 4 SFU
IFN-γ ELISpot response [5]: 13 SFU
IFN-γ ELISpot response [6]: 9 SFU
IFN-γ ELISpot response [7]: 26 SFU
Significant response as percentage of maximal peptide SFU (patient ID not given, max peptide 95 SFU): ′′ (21-40% = ′′)
Significant response as percentage of maximal peptide SFU (patient II, max peptide 15 SFU): + (>70% = +)
Significant response as percentage of maximal peptide SFU (patient J, max peptide 196 SFU): + (>70% = +)
Significant response as percentage of maximal peptide SFU (patient K, max peptide 53 SFU): ′′′ (41-70% = ′′′)
Significant response as percentage of maximal peptide SFU (patient M, max peptide 48 SFU): ′′ (21-40% = ′′)
IFN-γ ELISpot response [8]: 3 SFU
IFN-γ ELISpot response [9]: 11 SFU
IFN-γ ELISpot response [10]: 27 SFU
Significant response as percentage of maximal peptide SFU (patient Q, max peptide 97 SFU): ′′ (21-40% = ′′)
IFN-γ ELISpot response [11]: 15 SFU
Significant response as percentage of maximal peptide SFU (patient U, max peptide 81 SFU): ′ (11-20% = ′)
IFN-γ ELISpot response [12]: 9 SFU
IFN-γ ELISpot response [13]: 3 SFU
IFN-γ ELISpot response [14]: 1 SFU
Significant response as percentage of maximal peptide SFU (patient five, max peptide 48 SFU): ′′ (21-40% = ′′)
IFN-γ ELISpot response [15]: 10 SFU
Significant response as percentage of maximal peptide SFU (patient four, max peptide 44 SFU): ′′ (21-40% = ′′)
IFN-γ ELISpot response [16]: 11 SFU
Significant response as percentage of maximal peptide SFU (patient seven, max peptide 27 SFU): ′′′ (41-70% = ′′′)
IFN-γ ELISpot response [17]: 5 SFU
IFN-γ ELISpot response [18]: 158 SFU
IFN-γ ELISpot response [19]: 7 SFU
IFN-γ ELISpot response [20]: 13 SFU
Significant response as percentage of maximal peptide SFU (patient two, max peptide 60 SFU): ′ (11-20% = ′)
